Measured values as given in patent US4665085A, “Amidines, preparation process and therapeutical application thereof” (Laboratoires Chauvin-Blache, priority 1983, dated 1987).

Experiments:
[1] = test system: male New-Zealand rabbits; assay: Hypotensive activity in rabbits after topical administration (intraocular pressure); type: in vivo; details: rabbit; for effect on pressure in the contralateral eye (evidence of an action at the level of the central nervous system): same experimental conditions (topical instillation); for Duration of the effect / t (time corresponding to the maximum effect) / Δmax (maximum decrease of the intraocular pressure with respect to the basic value at time zero): 0.5% isotonic aqueous solution instilled in an eye
Procedure: 2. Hypotensive activity in rabbits, after topical administration
The experiments were conducted using male New-Zealand rabbits (2 kg body weight) given "ad libitum" food and drink.
The animals are given a few days to get accustomed to the animal house, are conditioned to stabling in restraining boxes, and to the ocular pressure determinations, in order to prevent pressure deviations induced by stress and handling.
The intraocular pressure is determined with an ALCON aplanation pneumatonograph, standardized by means of an isolated cornea of rabbit, under water pressure.
The compounds are tested in isotonic aqueous solution, at pH 7.25 μl of an 0.5% solution are instilled in an eye, and the intraocular pressure is determined as a function of time.
Table below gives the maximum decrease of the intraocular pressure (Δ max) with respect to the basic value at time zero (time of instillation), the time corresponding to this maximum effect (t), and the total duration of the effect.

[2] = biological target: T1, platelet α2 adrenergic receptors (Oryctolagus cuniculus, UniProt Q5ZQK3); assay: Affinity for platelet α2 adrenergic receptors (inhibition of specific linking of tritiated dihydroergocryptine); type: binding; details: rabbit platelet membranes, tritiated DHE 7 nM, 30 minutes at 25° C.; read-out: CE50 (dosage required to inhibit 50 percent of the linking of tritiated DHE)
T1 construct: from tissue; host or cells: platelet membranes from blood of male New Zealand albino rabbits
T1 sequence (Q5ZQK3 1-451): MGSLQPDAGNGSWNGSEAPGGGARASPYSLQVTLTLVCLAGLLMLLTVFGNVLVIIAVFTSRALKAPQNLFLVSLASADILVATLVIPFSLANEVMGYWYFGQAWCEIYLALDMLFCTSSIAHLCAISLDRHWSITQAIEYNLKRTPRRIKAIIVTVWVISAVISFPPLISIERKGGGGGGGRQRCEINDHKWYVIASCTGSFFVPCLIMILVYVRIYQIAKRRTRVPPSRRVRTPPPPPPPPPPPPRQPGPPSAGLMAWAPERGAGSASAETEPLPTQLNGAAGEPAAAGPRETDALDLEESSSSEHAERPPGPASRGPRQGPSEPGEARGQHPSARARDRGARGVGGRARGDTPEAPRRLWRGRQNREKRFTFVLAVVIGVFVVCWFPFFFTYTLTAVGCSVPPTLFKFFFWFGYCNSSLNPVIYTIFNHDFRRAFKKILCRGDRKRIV
Procedure: 1. Affinity for platelet α2 adrenergic receptors
The compounds of the formula (I) were tested on the platelet adrenergic receptor of rabbit which is exclusively of α2 type (MICHEL T., Nature, 288, (5792) 709, 1980).
The affinity of said compounds for the α2 receptors is determined by measuring the inhibition of the specific linking of tritiated dihydroergocryptine (DHE) by the test compounds.
The rabbits used are male New-Zealand albino rabbits
Blood is taken by the intracardiac route, over ACD (an anticoagulant consisting of an aqueous solution containing 0.27 g citric acid, 0.5 g trisodium citrate and 0.02 g glucose per 20 ml water) at a rate of 1 volume ACD per 6 volumes blood.
The blood is centrifuged 10 minutes at 280 g and the supernatant (PRP) is collected. The PRP is centrifuged 15 minutes at 2000 g.
The platelet sediment is washed twice with buffer I (Tris 50 mM, NaCl 150 mM, EDTA 20 mM, pH 7.5) and is then re-suspended in buffer II (Tris 50 mM, EDTA 5 mM, pH 7.5).
This suspension is frozen at -40° C., and is then defrosted; the procedure is repeated twice. The suspension is then homogenized, after which it is centrifuged 10 minutes at 40,000 g, at 4° C.
The centrifugation sediment is washed with buffer II and is then re-suspended in this same buffer so that the final protein concentration is of the order of 1.5 mg/ml.
The inhibition tests are effected in a final volume of 0.2 ml of buffer II containing the tritiated DHE (7 nM) and varying concentrations of test compound.
The reaction is initiated by adding 0.2 mg proteins and is continued for 30 minutes at 25° C.
The incubation is terminated by adding 2 ml buffer II and by rapidly filtering this mixture in vacuo, through Whatman GF/C filters. The filters are rapidly washed with buffer II and the radioactivity bound to the filter is determined by liquid scintillation.
The dosage required to inhibit 50 percent of the linking of the […] DHE (CE50) is calculated for each of the test compounds.

[3] = test system: male Swiss mice (NMRI-Han); assay: Acute toxicity by the intraperitoneal route; type: in vivo; details: observation time 48 hours
Procedure: The mice used are male Swiss mice (NMRI-Han) with an average body weight of 25 g.
The acute toxicity investigation was effected by the intraperitoneal route.
The compounds were injected in aqueous solution, at three dosage levels: 50, 100 and 200 mg/kg.
Table below gives the results obtained with compounds of the formula (I), after an observation time of 48 hours.
The results are expressed as number of dead animals vs. the total number of animals treated.

Compound | effect on pressure in the contralateral eye (evidence of an action at the level of the central nervous system) [1] | IC50 [2] [µM] | number of dead animals vs. total number of animals treated ([3]; 100 mg/kg) | number of dead animals vs. total number of animals treated ([3]; 200 mg/kg) | Duration of the effect [1] [mn] | t (time corresponding to the maximum effect) [1] [mn] | Δmax (maximum decrease of the intraocular pressure with respect to the basic value at time zero) [1] [mm Hg] | number of dead animals vs. total number of animals treated ([3]; 50 mg/kg)
Clc1cccc(Cl)c1C=NNC1=NCCN1 [(2,6-dichlorobenzylidene-hydrazino)-2-imidazoline, reference compound] | concomitant decrease of the pressure in the contralateral eye |  |  |  |  |  |  | 
Cc1cc(O)ccc1C=NNC1=NCCN1 [Compound 1] |  | 3 | 0/3 | 0/3 | 360 | 60 | -3.12 ± 2.21 | 
Cc1cc(N)ccc1C=NNC1=NCCN1 [Compound 2] |  | 10 | 0/3 | 3/3 | 300 | 60 | -4.12 ± 0.95 | 
CC(=NNC1=NCCN1)c1ccc(O)cc1C [Compound 3] |  | 5.6 | 0/3 | 3/3 | 300 | 30 | -1.83 ± 1 | 
COc1cc(O)ccc1C=NNC1=NCCN1 [Compound 4] |  | 3 | 0/3 | 0/3 | 400 | 60 | -2.5 ± 0.57 | 
COc1cc(N)ccc1C=NNC1=NCCN1 [Compound 5] |  | 14 | 0/3 |  | 360 | 120 | -3.9 ± 0.5 | 
COc1cc(O)ccc1C(C)=NNC1=NCCN1 [Compound 6] |  | 2.5 |  |  |  |  |  | 
Cc1cc(O)ccc1C=NNC(=N)N [Compound 7] |  | 6.3 | 0/3 | 3/3 |  | 60 | -0.25 ± 1.7 | 
Cc1cc(N)ccc1C=NNC(=N)N [Compound 8] |  | 32 | 0/3 | 3/3 |  |  |  | 
COc1cc(O)ccc1C=NNC(=N)N [Compound 9] |  | 8 | 3/3 | 3/3 |  |  |  | 0/3
CC(=NNC(=N)N)c1ccc(O)cc1C [Compound 10] |  | 11 | 0/3 | 2/3 |  |  |  | 
COc1cc(O)ccc1C(C)=NNC(=N)N [Compound 11] |  | 1.3 |  |  |  |  |  | 
Clc1cccc(Cl)c1N=C1NCCN1 [clonidine, 2,6-dichloro-anilino-2-imidazoline, reference compound] | concomitant decrease of the pressure in the contralateral eye |  |  |  |  |  |  | 
